IC50 data for 13 compounds are collected here from patent US11339130B1 (Blade Therapeutics, Inc., priority 2016, dated 2022).

The target in one experiment is T1, Human Calpain 9/NS1 (Homo sapiens, UniProt O14815).
T1 sequence (O14815 1-690): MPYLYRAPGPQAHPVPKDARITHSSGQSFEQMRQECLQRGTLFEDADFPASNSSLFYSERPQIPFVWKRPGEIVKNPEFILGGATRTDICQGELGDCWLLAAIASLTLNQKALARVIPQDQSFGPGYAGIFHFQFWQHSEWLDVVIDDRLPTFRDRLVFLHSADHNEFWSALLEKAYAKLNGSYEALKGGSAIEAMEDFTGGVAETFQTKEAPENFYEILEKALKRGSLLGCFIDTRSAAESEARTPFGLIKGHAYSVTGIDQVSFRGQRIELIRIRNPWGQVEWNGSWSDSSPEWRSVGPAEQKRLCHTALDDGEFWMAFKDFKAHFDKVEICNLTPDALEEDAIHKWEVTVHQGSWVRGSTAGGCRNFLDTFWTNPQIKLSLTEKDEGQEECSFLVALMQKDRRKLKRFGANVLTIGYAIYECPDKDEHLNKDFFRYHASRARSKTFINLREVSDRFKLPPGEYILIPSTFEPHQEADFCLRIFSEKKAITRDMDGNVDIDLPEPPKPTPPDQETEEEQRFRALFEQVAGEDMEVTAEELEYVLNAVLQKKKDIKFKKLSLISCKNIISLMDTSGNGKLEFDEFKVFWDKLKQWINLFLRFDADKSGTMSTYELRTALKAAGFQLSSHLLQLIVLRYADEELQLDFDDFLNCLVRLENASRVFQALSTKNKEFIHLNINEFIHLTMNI
T1 sequence (P04632 1-268 partner): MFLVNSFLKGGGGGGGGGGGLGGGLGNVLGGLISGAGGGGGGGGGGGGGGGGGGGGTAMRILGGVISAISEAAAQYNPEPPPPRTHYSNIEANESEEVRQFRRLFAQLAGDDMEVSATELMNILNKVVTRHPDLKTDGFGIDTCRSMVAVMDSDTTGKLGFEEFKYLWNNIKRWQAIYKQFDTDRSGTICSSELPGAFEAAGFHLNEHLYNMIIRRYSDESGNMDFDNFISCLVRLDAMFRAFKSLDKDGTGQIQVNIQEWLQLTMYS
Kind of experiment: Calpain inhibition continuous fluorescence (FRET) assay, Human Calpain 9/NS1. In kind it is biochemical. To be noted: read-out: Human Calpain 9/NS1 IC50. The essentials: (§1)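 Inhibitors were preincubated with calpain in 50 mM Tris pH 7.5, 100 mM NaCl, 1 mM DTT at 25C. Reactions were started with 5-FAM/QXL 520 FRET peptide substrate plus CaCl2 and read at 490/520 nm for 10 min. IC50s came from 4-parameter fits of slope rates (1-5 min).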

For another experiment, the target named is T2, Human Calpain 1/NS1 (Homo sapiens, UniProt P07384).
T2 sequence (P07384 1-714): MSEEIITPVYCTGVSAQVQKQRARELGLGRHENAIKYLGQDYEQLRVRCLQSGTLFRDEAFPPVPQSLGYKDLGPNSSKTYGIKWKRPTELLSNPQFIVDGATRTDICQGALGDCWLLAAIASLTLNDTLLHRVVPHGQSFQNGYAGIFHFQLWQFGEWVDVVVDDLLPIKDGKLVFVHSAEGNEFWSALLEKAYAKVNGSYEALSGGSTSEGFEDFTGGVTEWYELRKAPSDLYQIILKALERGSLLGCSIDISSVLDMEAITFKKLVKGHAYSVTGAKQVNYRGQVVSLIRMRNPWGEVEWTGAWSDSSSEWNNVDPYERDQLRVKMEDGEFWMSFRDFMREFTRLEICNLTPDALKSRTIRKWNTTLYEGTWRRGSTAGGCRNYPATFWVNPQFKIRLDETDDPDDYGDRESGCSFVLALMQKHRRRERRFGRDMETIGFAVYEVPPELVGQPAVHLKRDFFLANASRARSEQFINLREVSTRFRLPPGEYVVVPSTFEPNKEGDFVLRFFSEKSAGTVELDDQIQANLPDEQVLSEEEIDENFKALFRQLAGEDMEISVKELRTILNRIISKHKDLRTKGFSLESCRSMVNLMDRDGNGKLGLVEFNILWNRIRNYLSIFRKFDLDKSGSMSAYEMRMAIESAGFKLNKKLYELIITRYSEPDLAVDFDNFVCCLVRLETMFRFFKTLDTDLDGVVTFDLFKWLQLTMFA
T2 sequence (P04632 1-268 partner): T1 sequence (P04632 1-268 partner)
Kind of experiment: Calpain inhibition continuous fluorescence (FRET) assay, Human Calpain 1/NS1. In kind it is biochemical. To be noted: read-out: Human Calpain 1/NS1 IC50. The essentials: as §1

Experiment [1] has as its system Calpain activity in SH-SY5Y cells (SBDP-150). The experiment in a line: SH-SY5Y Spectrin western blot assay (SBDP-150 breakdown product, A23187-induced). To be noted: Homo sapiens; SH-SY5Y cells, A23187-induced SBDP-150, western blot; read-out: SH-SY5Y Spectrin IC50. In kind it is cell-based. In general terms: In western blotting, separated proteins are transferred to a membrane and probed.

The subject of experiment [2] is Calpain activity in SH-SY5Y cells. Kind of experiment: SH-SY5Y + AMC fluorescence assay (Suc-LLVY-AMC substrate). The experiment is classed as cell-based. To be noted: read-out: SH-SY5Y + AMC IC50.
In the next experiment the target is T3, Human Calpain 2/NS1 (Homo sapiens, UniProt P17655).
T3 sequence (P17655 1-700): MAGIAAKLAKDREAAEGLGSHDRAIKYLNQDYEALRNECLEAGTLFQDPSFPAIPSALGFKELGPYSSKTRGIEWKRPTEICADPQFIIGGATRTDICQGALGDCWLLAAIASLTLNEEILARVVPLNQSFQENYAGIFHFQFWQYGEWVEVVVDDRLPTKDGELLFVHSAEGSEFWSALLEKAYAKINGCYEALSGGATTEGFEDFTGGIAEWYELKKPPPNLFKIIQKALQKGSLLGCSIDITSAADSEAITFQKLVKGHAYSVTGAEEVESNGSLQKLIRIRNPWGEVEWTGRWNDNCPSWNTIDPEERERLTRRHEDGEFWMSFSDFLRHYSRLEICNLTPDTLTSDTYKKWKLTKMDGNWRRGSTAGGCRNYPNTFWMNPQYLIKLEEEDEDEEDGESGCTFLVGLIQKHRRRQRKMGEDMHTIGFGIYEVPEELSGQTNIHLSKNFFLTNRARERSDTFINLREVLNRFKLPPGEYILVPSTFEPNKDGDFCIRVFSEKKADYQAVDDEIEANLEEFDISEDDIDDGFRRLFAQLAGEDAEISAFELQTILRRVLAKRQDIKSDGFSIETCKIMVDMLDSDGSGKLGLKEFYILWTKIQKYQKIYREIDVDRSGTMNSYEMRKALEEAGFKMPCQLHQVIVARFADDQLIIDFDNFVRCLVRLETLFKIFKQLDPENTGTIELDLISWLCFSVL
T3 sequence (P04632 1-268 partner): T1 sequence (P04632 1-268 partner)
Kind of experiment: Calpain inhibition continuous fluorescence (FRET) assay, Human Calpain 2/NS1. To be noted: read-out: Human Calpain 2/NS1 IC50. In kind it is biochemical. Put shortly:
as §1

Structures are written as SMILES.

For the compound `NC(=O)C(=O)C(Cc1ccccc1)NC(=O)c1cn(C(F)F)nc1-c1cccc2ccccc12` (centres unmarked) [Compound 547, N-(4-amino-3,4-dioxo-1-phenylbutan-2-yl)-1-(difluoromethyl)-3-(naphthalen-1-yl)-1H-pyrazole-4-carboxamide], the IC50 at Human Calpain 9/NS1 was under 3 µM; at Human Calpain 1/NS1, under 3 µM; in experiment [1], under 10 µM; in experiment [2], under 10 µM; on Human Calpain 2/NS1 it was under 3 µM.

On to `Cn1cc(C(=O)NC(Cc2ccccc2)C(=O)C(N)=O)c(-c2ccc3c(c2)OC(F)(F)O3)n1` (centres unmarked) [Compound 548, N-(4-amino-3,4-dioxo-1-phenylbutan-2-yl)-3-(2,2-difluorobenzo[d][1,3]dioxol-5-yl)-1-methyl-1H-pyrazole-4-carboxamide], for which the IC50 at Human Calpain 9/NS1 is under 3 µM; on Human Calpain 1/NS1, under 3 µM; in experiment [1], over 25 µM; in experiment [2], over 25 µM; on Human Calpain 2/NS1, under 3 µM.

On to `Cc1ccc(F)c(-c2oncc2C(=O)NC(Cc2ccccc2)C(=O)C(N)=O)c1` (centres unmarked) [Compound 549, N-(4-amino-3,4-dioxo-1-phenylbutan-2-yl)-5-(2-fluoro-5-methylphenyl)isoxazole-4-carboxamide], for which the IC50 was under 3 µM at Human Calpain 9/NS1; under 3 µM at Human Calpain 1/NS1; over 25 µM in experiment [1]; under 10 µM in experiment [2]; under 3 µM at Human Calpain 2/NS1.

In the case of `NC(=O)C(=O)C(Cc1ccccc1)NC(=O)c1cn(C(F)F)nc1-c1ccccn1` (centres unmarked) [Compound 550, N-(4-amino-3,4-dioxo-1-phenylbutan-2-yl)-1-(difluoromethyl)-3-(pyridin-2-yl)-1H-pyrazole-4-carboxamide], the IC50 at Human Calpain 9/NS1 is under 3 µM; at Human Calpain 1/NS1 it was under 3 µM; in experiment [1], over 25 µM; in experiment [2], 10 to 25 µM; on Human Calpain 2/NS1 it was under 3 µM.

With `NC(=O)C(=O)C(Cc1ccccc1)NC(=O)c1cn(C(F)F)nc1-c1ccc2ccccc2c1` (centres unmarked) [Compound 551, N-(4-amino-3,4-dioxo-1-phenylbutan-2-yl)-1-(difluoromethyl)-3-(naphthalen-2-yl)-1H-pyrazole-4-carboxamide], the IC50 is under 3 µM at Human Calpain 9/NS1; under 3 µM at Human Calpain 1/NS1; 10 to 25 µM in experiment [1]; over 25 µM in experiment [2]; under 3 µM on Human Calpain 2/NS1.

As for `NC(=O)C(=O)C(Cc1ccccc1)NC(=O)c1cn(C(F)F)nc1-c1cc(F)ccc1F` (centres unmarked) [Compound 552, N-(4-amino-3,4-dioxo-1-phenylbutan-2-yl)-1-(difluoromethyl)-3-(2,5-difluorophenyl)-1H-pyrazole-4-carboxamide], the IC50 is under 3 µM at Human Calpain 9/NS1; under 3 µM at Human Calpain 1/NS1; under 10 µM in experiment [1]; under 10 µM in experiment [2]; under 3 µM on Human Calpain 2/NS1.

For `Cn1cc(C(=O)N[C@H](C(=O)C(N)=O)C2Cc3ccccc3C2)c(-c2ccccc2F)n1` [Compound 553, (S)—N-(3-amino-1-(2,3-dihydro-1H-inden-2-yl)-2,3-dioxopropyl)-3-(2-fluorophenyl)-1-methyl-1H-pyrazole-4-c arboxamide], the IC50 on Human Calpain 9/NS1 was under 3 µM; on Human Calpain 1/NS1, under 3 µM; in experiment [1], over 25 µM; in experiment [2], under 10 µM; on Human Calpain 2/NS1 it was under 3 µM.

Turning to `Cc1cc(F)cc(-c2nn(C(F)F)cc2C(=O)NC(Cc2ccccc2)C(=O)C(N)=O)c1` (centres unmarked) [Compound 554, N-(4-amino-3,4-dioxo-1-phenylbutan-2-yl)-1-(difluoromethyl)-3-(3-fluoro-5-methylphenyl)-1H-pyrazole-4-carboxamide], the IC50 is under 3 µM on Human Calpain 9/NS1; under 3 µM at Human Calpain 1/NS1; under 10 µM in experiment [1]; under 10 µM in experiment [2]; under 3 µM at Human Calpain 2/NS1.

Regarding `NC(=O)C(=O)C(Cc1ccccc1)NC(=O)c1cn(C(F)F)nc1-c1cccc2c1OCCO2` (centres unmarked) [Compound 555], the IC50 was under 3 µM on Human Calpain 9/NS1; under 3 µM on Human Calpain 1/NS1; over 25 µM in experiment [1]; under 10 µM in experiment [2]; under 3 µM at Human Calpain 2/NS1.

For `NC(=O)C(=O)C(Cc1ccccc1)NC(=O)c1cnoc1-c1ccccc1F` (centres unmarked) [Compound 556, N-(4-amino-3,4-dioxo-1-phenylbutan-2-yl)-5-(2-fluorophenyl)isoxazole-4-carboxamide], the IC50 is under 3 µM at Human Calpain 9/NS1; under 3 µM at Human Calpain 1/NS1; under 10 µM in experiment [1]; under 10 µM in experiment [2]; under 3 µM at Human Calpain 2/NS1.

For `Cc1ccccc1-c1oncc1C(=O)NC(Cc1ccccc1)C(=O)C(N)=O` (centres unmarked) [Compound 557, N-(4-amino-3,4-dioxo-1-phenylbutan-2-yl)-5-(o-tolyl)isoxazole-4-carboxamide], the IC50 was under 3 µM on Human Calpain 9/NS1; under 3 µM on Human Calpain 1/NS1; over 25 µM in experiment [1]; under 10 µM in experiment [2]; under 3 µM on Human Calpain 2/NS1.

With `Cc1ccc(F)cc1-c1oncc1C(=O)NC(Cc1ccccc1)C(=O)C(N)=O` (centres unmarked) [Compound 558, N-(4-amino-3,4-dioxo-1-phenylbutan-2-yl)-5-(5-fluoro-2-methylphenyl)isoxazole-4-carboxamide], the IC50 is under 3 µM at Human Calpain 9/NS1; under 3 µM on Human Calpain 1/NS1; 10 to 25 µM in experiment [1]; under 10 µM in experiment [2]; under 3 µM at Human Calpain 2/NS1.

Turning to `NC(=O)C(=O)C(Cc1ccccc1)NC(=O)c1cnoc1-c1cccc(F)c1` (centres unmarked) [Compound 559, N-(4-amino-3,4-dioxo-1-phenylbutan-2-yl)-5-(3-fluorophenyl)isoxazole-4-carboxamide], the IC50 at Human Calpain 9/NS1 was under 3 µM; at Human Calpain 1/NS1, under 3 µM; in experiment [1] it was 10 to 25 µM; in experiment [2], over 25 µM; at Human Calpain 2/NS1, under 3 µM.
